According to patent US20230416227A1, “PLASMA KALLIKREIN INHIBITORS” (Merck Sharp & Dohme LLC, priority 2020, published 2023):

What was measured:
Human plasma kallikrein = target: T1, Human plasma kallikrein (Homo sapiens, UniProt P03952); experiment: Plasma Kallikrein Assay; format: biochemical; conditions: purified Human plasma kallikrein 0.5 nM, substrate Acetyl-K-P-R-AFC, pH 7.4
T1 construct: yields a heavy chain (371 amino acids) and a light chain (248 amino acids); purchased Enzyme Research Laboratories

human factor XIa = human factor XIa (Homo sapiens, UniProt P03951); experiment: Factor XIa Assay; format: biochemical; conditions: human factor XIa 0.04 nM, substrate GPR-AFC, 30 min pre-incubation at 25° C., pH 7.4; read-out: FXIa IC50
Protocol: The effectiveness of a compound of the present invention as an inhibitor of Coagulation factor XIa can be determined using a relevant purified serine protease, and an appropriate synthetic substrate. The rate of hydrolysis of the chromogenic or fluorogenic substrate by the relevant serine protease was measured both in the absence and presence of compounds of the present invention. Assays were conducted at rt or at 37° C. […] A decrease in the rate of fluorescence change in the presence of inhibitor is indicative of enzyme inhibition. Such methods are known to one skilled in the art. The results of this assay are expressed as the half-maximal inhibitory concentrations (IC50), or the inhibitory constant, Ki.
Compounds were pre-incubated for 30 min at 25° C. with human (0.04 nM) factor XIa in 50 mM HEPES buffer with 150 mM sodium chloride, 5 mM calcium chloride, 0.1% PEG 8000, pH 7.4. factor XIa enzymatic activity was determined by addition of the substrate glycine-proline-arginine-7-amido-4-trifluoromethylcoumarin (GPR-AFC) and measurement of the fluorescence at 400/505 nm after a 60 min incubation at 25° C. The % inhibition for each data point was calculated from the data and analyzed using the log (inhibitor) vs. response four parameters equation to determine the half-maximal inhibitory concentrations (IC50). The IC50 were converted to equilibrium inhibitory constants (Ki) using the Cheng-Prusoff equation.

human factor XIa, sequence (P03951 388-625 limits assumed): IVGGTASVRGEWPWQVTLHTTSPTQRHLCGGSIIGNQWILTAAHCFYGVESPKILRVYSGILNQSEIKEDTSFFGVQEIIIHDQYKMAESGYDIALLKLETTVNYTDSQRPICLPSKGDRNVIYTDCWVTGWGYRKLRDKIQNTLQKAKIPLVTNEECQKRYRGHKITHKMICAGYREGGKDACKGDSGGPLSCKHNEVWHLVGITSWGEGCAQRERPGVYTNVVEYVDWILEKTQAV
human factor XIa, sequence (P03951 19-387 partner limits assumed): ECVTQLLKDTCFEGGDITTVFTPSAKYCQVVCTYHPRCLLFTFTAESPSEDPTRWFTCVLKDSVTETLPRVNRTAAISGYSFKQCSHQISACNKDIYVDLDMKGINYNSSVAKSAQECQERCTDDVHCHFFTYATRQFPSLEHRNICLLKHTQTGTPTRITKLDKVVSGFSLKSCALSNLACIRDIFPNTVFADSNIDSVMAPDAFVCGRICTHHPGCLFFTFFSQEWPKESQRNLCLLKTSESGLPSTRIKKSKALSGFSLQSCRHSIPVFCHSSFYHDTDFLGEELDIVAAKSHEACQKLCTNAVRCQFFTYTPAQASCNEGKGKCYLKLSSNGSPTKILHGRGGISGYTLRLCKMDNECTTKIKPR
T1 sequence (P03952 391-638 limits assumed): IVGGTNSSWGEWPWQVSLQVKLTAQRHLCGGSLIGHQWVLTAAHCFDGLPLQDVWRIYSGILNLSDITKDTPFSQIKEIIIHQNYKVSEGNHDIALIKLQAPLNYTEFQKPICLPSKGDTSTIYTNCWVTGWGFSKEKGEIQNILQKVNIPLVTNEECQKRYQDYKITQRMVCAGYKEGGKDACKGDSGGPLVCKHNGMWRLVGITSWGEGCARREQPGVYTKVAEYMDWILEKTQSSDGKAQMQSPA
T1 sequence (P03952 20-390 partner limits assumed): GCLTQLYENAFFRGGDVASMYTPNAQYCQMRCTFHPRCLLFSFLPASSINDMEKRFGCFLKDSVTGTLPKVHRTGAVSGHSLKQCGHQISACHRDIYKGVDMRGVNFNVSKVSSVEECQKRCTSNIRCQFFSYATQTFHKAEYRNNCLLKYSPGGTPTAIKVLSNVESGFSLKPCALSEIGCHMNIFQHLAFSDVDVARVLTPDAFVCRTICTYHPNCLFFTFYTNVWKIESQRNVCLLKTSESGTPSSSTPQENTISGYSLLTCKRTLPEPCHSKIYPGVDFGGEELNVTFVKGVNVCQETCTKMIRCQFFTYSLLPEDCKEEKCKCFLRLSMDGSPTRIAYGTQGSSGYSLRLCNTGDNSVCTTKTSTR

In the case of `CC(c1cnc(N2CCC2)nc1)n1cc(NC(=O)c2cncc(-c3c(OC(F)F)ccc(Cl)c3F)n2)cn1` (single isomer, unassigned) [Example 56, (R or S)-N-(1-(1-(2-(Azetidin-1-yl)pyrimidin-5-yl)ethyl)-1H-pyrazol-4-yl)-6-(3-chloro-6-(difluoromethoxy)-2-fluorophenyl)pyrazine-2-carboxamide], the IC50 (Human plasma kallikrein) is reported as 27.7 nM and the IC50 (human factor XIa) is reported as 1490 nM.
For `CC(c1cnc(N2CCC2)nc1)n1cc(NC(=O)c2cncc(-c3c(OC(F)F)ccc(Cl)c3F)n2)cn1` (single isomer, unassigned) [Example 57, (S or R)-N-(1-(1-(2-(Azetidin-1-yl)pyrimidin-5-yl)ethyl)-1H-pyrazol-4-yl)-6-(3-chloro-6-(difluoromethoxy)-2-fluorophenyl)pyrazine-2-carboxamide], the IC50 (Human plasma kallikrein) was 6.8 nM and the IC50 (human factor XIa) was 1170 nM.
Work on `CC(c1cnc(N2CCC2)nc1)n1cc(NC(=O)c2cncc(-c3cc(Cl)ccc3-n3cnnn3)n2)cn1` (single isomer, unassigned) [Example 58, (S or R)-N-(1-(1-(2-(Azetidin-1-yl)pyrimidin-5-yl)ethyl)-1H-pyrazol-4-yl)-6-(5-chloro-2-(1H-tetrazol-1-yl)phenyl)pyrazine-2-carboxamide] yielded an IC50 (Human plasma kallikrein) of 8.1 nM and an IC50 (human factor XIa) of 413 nM.
In the case of `CC(c1cnc(N2CCC2)nc1)n1cc(NC(=O)c2cncc(-c3cc(Cl)ccc3-n3cnnn3)n2)cn1` (single isomer, unassigned) [Example 59, (R or S)-N-(1-(1-(2-(Azetidin-1-yl)pyrimidin-5-yl)ethyl)-1H-pyrazol-4-yl)-6-(5-chloro-2-(1H-tetrazol-1-yl)phenyl)pyrazine-2-carboxamide], the IC50 (Human plasma kallikrein) is reported as 1.8 nM and the IC50 (human factor XIa) is reported as 372 nM.
Compound `COc1ccc(-n2cnnn2)c(-c2cncc(C(=O)Nc3cnn(C(C)c4cnc(N5CCC5)nc4)c3)n2)c1` (single isomer, unassigned) [Example 60, (S or R)-N-(1-(1-(2-(Azetidin-1-yl)pyrimidin-5-yl)ethyl)-1H-pyrazol-4-yl)-6-(5-methoxy-2-(1H-tetrazol-1-yl)phenyl)pyrazine-2-carboxamide] has an IC50 (Human plasma kallikrein) of 47 nM and an IC50 (human factor XIa) of 730 nM.
For `COc1ccc(-n2cnnn2)c(-c2cncc(C(=O)Nc3cnn(C(C)c4cnc(N5CCC5)nc4)c3)n2)c1` (single isomer, unassigned) [Example 61, (R or S)-N-(1-(1-(2-(Azetidin-1-yl)pyrimidin-5-yl)ethyl)-1H-pyrazol-4-yl)-6-(5-methoxy-2-(1H-tetrazol-1-yl)phenyl)pyrazine-2-carboxamide], the IC50 (Human plasma kallikrein) was 14 nM and the IC50 (human factor XIa) was 662 nM.
`Cc1cc(N2CCC2)ncc1[C@H](C)n1cc(NC(=O)c2cncc(-c3c(C(F)F)ccc(Cl)c3F)n2)cn1` (single isomer, unassigned) [Example 66] showed an IC50 (Human plasma kallikrein) of 3.9 nM and an IC50 (human factor XIa) of 639 nM.
Work on `Cc1nc(N2CCC2)ncc1[C@H](C)n1cc(NC(=O)c2cncc(-c3c(C(F)F)ccc(Cl)c3F)n2)cn1` (single isomer, unassigned) [Example 69] yielded an IC50 (Human plasma kallikrein) of 64.3 nM and an IC50 (human factor XIa) of 8070 nM.
For `Cc1nc(N2CCC2)ncc1[C@@H](C)n1cc(NC(=O)c2cncc(-c3c(C(F)F)ccc(Cl)c3F)n2)cn1` (single isomer, unassigned) [Example 70], the IC50 (Human plasma kallikrein) was 1.4 nM and the IC50 (human factor XIa) was 485 nM.
Work on `C[C@@H](c1cnc(N2C[C@@H]3C[C@@H]3[C@@H]2CO)nc1)n1cc(NC(=O)c2cncc(-c3c(C(F)F)ccc(Cl)c3F)n2)cn1` (single isomer, unassigned) [Example 71, 6-(3-Chloro-6-(difluoromethyl)-2-fluorophenyl)-N-(1-((S or R)-1-(2-((1S,2R,5R or 1R,2S,5S)-2-(hydroxymethyl)-3-azabicyclo[3.1.0]hexan-3-yl)pyrimidin-5-yl)ethyl)-1H-pyrazol-4-yl)pyrazine-2-carboxamide] yielded an IC50 (Human plasma kallikrein) of 2.5 nM and an IC50 (human factor XIa) of 2260 nM.
`C[C@@H](c1cnc(N2C[C@@H]3C[C@@H]3[C@@H]2CO)nc1)n1cc(NC(=O)c2cncc(-c3c(C(F)F)ccc(Cl)c3F)n2)cn1` (single isomer, unassigned) [Example 74, 6-(3-Chloro-6-(difluoromethyl)-2-fluorophenyl)-N-(1-((S or R)-1-(2-((1S,2R,5R or 1R,2S,5S)-2-(hydroxymethyl)-3-azabicyclo[3.1.0]hexan-3-yl)pyrimidin-5-yl)ethyl)-1H-pyrazol-4-yl)pyrazine-2-carboxamide] showed an IC50 (Human plasma kallikrein) of 4.3 nM and an IC50 (human factor XIa) of 1020 nM.
For `C[C@@H](c1cnc(N2C[C@@H]3C[C@@H]3[C@@H]2CO)nc1)n1cc(NC(=O)c2cncc(-c3c(C(F)F)ccc(Cl)c3F)n2)cn1` (single isomer, unassigned) [Example 76, 6-(3-Chloro-6-(difluoromethyl)-2-fluorophenyl)-N-(1-((S or R)-1-(2-((1S,2R,5R or 1R,2S,5S)-2-(hydroxymethyl)-3-azabicyclo[3.1.0]hexan-3-yl)pyrimidin-5-yl)ethyl)-1H-pyrazol-4-yl)pyrazine-2-carboxamide], the IC50 (Human plasma kallikrein) was 5.4 nM and the IC50 (human factor XIa) was 4640 nM.
`O=C(Nc1cnn(Cc2cnc(N3CC4CC4C3CO)nc2)c1)c1cncc(-c2c(C(F)F)ccc(Cl)c2F)n1` (single isomer, unassigned) [Example 77, 6-(3-Chloro-6-(difluoromethyl)-2-fluorophenyl)-N-(1-((2-((1R,2S,5S or 1S,2R,5R)-2-(hydroxymethyl)-3-azabicyclo[3.1.0]hexan-3-yl)pyrimidin-5-yl)methyl)-1H-pyrazol-4-yl)pyrazine-2-carboxamide] showed an IC50 (Human plasma kallikrein) of 5.6 nM and an IC50 (human factor XIa) of 2950 nM.
`O=C(Nc1cnn(Cc2cnc(N3CC4CC4C3CO)nc2)c1)c1cncc(-c2c(C(F)F)ccc(Cl)c2F)n1` (single isomer, unassigned) [Example 79, 6-(3-Chloro-6-(difluoromethyl)-2-fluorophenyl)-N-(1-((2-((1R,2S,5S or 1S,2R,5R)-2-(hydroxymethyl)-3-azabicyclo[3.1.0]hexan-3-yl)pyrimidin-5-yl)methyl)-1H-pyrazol-4-yl)pyrazine-2-carboxamide] gave an IC50 (Human plasma kallikrein) of 5.9 nM and an IC50 (human factor XIa) of 2860 nM.
`CC(c1cnc(N2CC3(CC3)C2)nc1)n1cc(NC(=O)c2cncc(-c3c(C(F)F)ccc(Cl)c3F)n2)cn1` (single isomer, unassigned) [Example 93, (R or S)-N-(1-(1-(2-(5-Azaspiro[2.3]hexan-5-yl)pyrimidin-5-yl)ethyl)-1H-pyrazol-4-yl)-6-(3-chloro-6-(difluoromethyl)-2-fluorophenyl)pyrazine-2-carboxamide] was tested, and the IC50 (Human plasma kallikrein) was 19.9 nM and the IC50 (human factor XIa) was 4310 nM.
`O=C(Nc1cnn(Cc2cnc(N3CCCC3CCO)nc2)c1)c1cncc(-c2c(C(F)F)ccc(Cl)c2F)n1` (single isomer, unassigned) [Example 102, (S or R)-6-(3-Chloro-6-(difluoromethyl)-2-fluorophenyl)-N-(1-((2-(2-(2-hydroxyethyl)pyrrolidin-1-yl)pyrimidin-5-yl)methyl)-1H-pyrazol-4-yl)pyrazine-2-carboxamide] gave an IC50 (Human plasma kallikrein) of 31.2 nM and an IC50 (human factor XIa) of 2250 nM.
Compound `O=C(Nc1cnn(Cc2cnc(N3CCCC3CCO)nc2)c1)c1cncc(-c2c(C(F)F)ccc(Cl)c2F)n1` (single isomer, unassigned) [Example 105, (S or R)-6-(3-Chloro-6-(difluoromethyl)-2-fluorophenyl)-N-(1-((2-(2-(2-hydroxyethyl)pyrrolidin-1-yl)pyrimidin-5-yl)methyl)-1H-pyrazol-4-yl)pyrazine-2-carboxamide] has an IC50 (Human plasma kallikrein) of 36.8 nM and an IC50 (human factor XIa) of 3380 nM.
`O=C(Nc1cnn(C2CCc3cc(N4CCC4)ncc32)c1)c1cncc(-c2c(C(F)F)ccc(Cl)c2F)n1` (single isomer, unassigned) [Example 119, (R or S)-N-(1-(3-(Azetidin-1-yl)-6,7-dihydro-5H-cyclopenta[c]pyridin-7-yl)-1H-pyrazol-4-yl)-6-(3-chloro-6-(difluoromethyl)-2-fluorophenyl)pyrazine-2-carboxamide] showed an IC50 (Human plasma kallikrein) of 14.5 nM and an IC50 (human factor XIa) of 3580 nM.
In the case of `C[C@H](O)c1ncc(-c2c(C(F)F)ccc(Cl)c2F)nc1C(=O)Nc1cnn(Cc2cnc(N3CCC3)nc2)c1` (single isomer, unassigned) [Example 134], the IC50 (Human plasma kallikrein) is reported as 9.4 nM and the IC50 (human factor XIa) is reported as 852 nM.
`C[C@@H](O)c1ncc(-c2c(C(F)F)ccc(Cl)c2F)nc1C(=O)Nc1cnn(Cc2cnc(N3CCC3)nc2)c1` (single isomer, unassigned) [Example 135] gave an IC50 (Human plasma kallikrein) of 2.8 nM and an IC50 (human factor XIa) of 120 nM.
In the case of `CN(CC1CCCN1c1ncc(Cn2cc(NC(=O)c3cncc(-c4c(C(F)F)ccc(Cl)c4F)n3)cn2)cn1)CC1(O)CC1` (single isomer, unassigned) [Example 140, (S or R)-6-(3-Chloro-6-(difluoromethyl)-2-fluorophenyl)-N-(1-((2-(2-((((1-hydroxycyclopropyl)methyl)(methyl)amino)methyl)pyrrolidin-1-yl)pyrimidin-5-yl)methyl)-1H-pyrazol-4-yl)pyrazine-2-carboxamide], the IC50 (Human plasma kallikrein) is reported as 0.2 nM and the IC50 (human factor XIa) is reported as 1290 nM.
